Experimental findings from patent US4962277A, “Deletion analogues of magainin peptides” (priority 1988, dated 1990) are described below.

Read-outs that look alike come from different tables or passages of the source. No end group written: not given here.

One data set deals with human red blood cells. Particulars: pH 7.
Another data set has as its system Staphylococcus epidermis. In words: Antimicrobial assay: growth inhibition in 96-well plates, O.D.620 at six hours. It counts as cell-based. Particulars: for % Inhibit, S. epidermis: 1.0×10^6 CFU/ml; for Effective Growth Inhibition Conc., S. epidermis: concentration at which the reported % inhibition (greater than 80%) was found, 100% at next higher concentration if below 100%. Here is the method: (§1) Antimicrobial assays were carried out in 96 -well tissue culture plates. Each well was incubated with a given microorganism suspended in LB medium (Escherichia coli, and Staphylococcus epidermis or YTB medium (Candida albicans). Upon the addition of the peptides or their deletion analogues, (dissolved in 1×PBS, pH 7.0) each well contained a final cell density of 1.0×10^6 colony forming units (CFU)/ml. The final peptide concentrations used were 100 μg/ml., 75.0 μg/ml, 50.0 μg/ml, 25 μg/ml, and 10 μg/ml Concentrations of up to 500 μg/ml, however, were employed against C. albicans.
(§2) Addition of peptides to the wells was defined as time zero. At six hours, the plates were placed in a Titertek Multiskan apparatus and the O.D.620 determined. The plates as well as the initial innoculum were incubated at 37° C.
(§3) Five wells per plate contained media alone. while five others contained medium plus cells. These controls were used to eliminate the possibility of media contamination while providing a measure of uninhibited growth of the microorganisms. The measurements of 1/(change in optical in density) for the wells containing either the peptides or their deletion analogues in the above-mentioned varying concentrations with the colony forming units of E. coli or S. epidermis are shown in FIGS. 1 and 2. FIG. 1 is a graph of the measurements of 1/(change in optical density) for wells containing Magainin I or Magainin II peptides or their deletion analogues and E. coli. FIG. 1a is a graph pertaining to Magainin I (indicated by X) and its deletion analogues. (The deletion analogue wherein amino acid 23 omitted was not tested). FIG. 1b is a graph pertaining to Magainin II (indicated by X) and its deletion analogues. In both graphs, Z is a control of medium plus cells.
FIG. 2 is a graph of the measurements of 1/(change in optical density) for wells containing Magainin I or Magainin II peptides or their deletion analogues and S. epidermis. FIG. 2a is a graph pertaining to Magainin I (indicated by X) and its deletion analogues. (The deletion analogue wherein amino acid 23 was deleted was not tested.) FIG. 2b is a graph pertaining to Magainin II (indicated by X) and its deletion analogues. In both graphs, Z is a control of medium plus cells. The measurements of 1/(change in optical density) as measured for the Magainin I and Magainin II peptides and their deletion analogues can be correlated to a measurement of their effectivness against E. coli and S. epidermis.
(§4) The degree of peptide activity was determined by comparing the deletion analogs with uninhibited growth of the control cells over a six-hour period. […] As listed in Table 1, M1C is Magainin I, C-terminal carboxyl carboxy-terminated), whereas M2A, is Magainin II, C-terminal amide (amide-terminated). The letter and number code after each M1C or M2A peptide indicates the amino acid residue deleted from the particular deletion analogue of Magainin I carboxY-terminated) or Magainin II (amide-terminated).

Another data set relates to Escherichia coli. In kind it is cell-based. Particulars: six hours; for % Inhibit, E. coli: 1.0×10^6 CFU/ml; for Effective Growth Inhibition Conc., E. coli: concentration at which the reported % inhibition (greater than 80%) was found, 100% at next higher concentration if below 100%. As to the method: as §1, §2, §3, §4
A further data set has as its system E. coli. In words: Kinetics of microbial killing. Particulars: peptide 25 μg/ml; E. coli 1.0×10^6 CFU/ml; 37° C. In kind it is cell-based. As to the method: Dissolved peptide preparations of amide-terminated Magainin II, amide-terminated Magainin II with glycine (amino acid 18) deleted, and amide-terminated Magainin II with glutamic acid (amino acid 19) deleted were added to test tubes containing E. coli (1.0×10^6 CFU/ml) to a final peptide concentration of 25 μg/ml. At the time points of 15, 30, 45, and 60 minutes after the addition, indicated in FIG. 3, 10.0 µl were removed from each tube and sequentially diluted by a factor of ten four times in LB medium. The number of bacteria at each time point was determined by plating 10.0 μl of the 10^-2, 10^-3, and 10^-4 dilutions. The log of the number of bacteria from these dilutions at each time point was determined, and was plotted on the graph in FIG. 3. Two controls, one with medium alone and one with no peptides were both incubated along with the tubes containing cells and peptides. The tubes as well as the agar plates used were incubated at 37° C.

In the case of GIGKFHSAGKFGKAFVGEIMKS [M1C-L^6], the “% Hemolysis of Human Red Blood Cells” value with human red blood cells turned out to be 0%.
As to GIGKFHSAKKFGKAFVGEIMNS-NH2 [M2A-L^6], in the data set on Staphylococcus epidermis (peptide 100 μg/ml), the “% Inhibit, S. epidermis” value was determined as 0%. For the same substance, in the data set with Escherichia coli (peptide 100 μg/ml), the “% Inhibit, E. coli” value amounted to 0%. Further, the “% Hemolysis of Human Red Blood Cells” value in the data set with human red blood cells was 1%.
Consider GIGKFLHSAGKFGKAFGEIMKS [M1C-V^17], for which the “% Hemolysis of Human Red Blood Cells” value in the data set with human red blood cells amounted to 1%.
With GIGKFLHSAGKFGKAFVGEIKS [M1C-M^21], in the data set on human red blood cells, the “% Hemolysis of Human Red Blood Cells” value stood at 1%.
Take GIGKFLHSAGKFGKAFVGEIMK [M1C-S^23]: the “% Hemolysis of Human Red Blood Cells” value in the data set on human red blood cells worked out at 0%.
Consider “GIGKFLHSAGKFGKAFVGEIMKS [Peptide M1C, Magainin I, reference compound]”, for which the “% Hemolysis of Human Red Blood Cells” value in the data set with human red blood cells worked out at 2%.
On the same count and under the same terms, the value for GIGKFLHSAGKFGKAFVGEMKS [M1C-I^20] was 1%.
The same measure, in the same setting: the value for GIGKFLHSAGKFGKAFVGIMKS [M1C-E^19] was 1%.
In the case of GIGKFLHSAKKFGKAFGEIMNS-NH2 [M2A-V^17], the “% Inhibit, S. epidermis” value in the data set with Staphylococcus epidermis (peptide 100 μg/ml) amounted to 0%. In addition, in the data set with Escherichia coli, the “Effective Growth Inhibition Conc., E. coli” value was found to be 50 µg/mL. Moreover, the “% Inhibit, E. coli” value with Escherichia coli (peptide 50 μg/ml) is listed as 87%. Further, in the data set with human red blood cells, the “% Hemolysis of Human Red Blood Cells” value is reported as 0%.
As to GIGKFLHSAKKFGKAFVEIMNS-NH2 [M2A-G^18], the “time until all E. coli cells were killed after addition of the peptide” value (“time until all E. coli cells were killed” for short) in the data set on E. coli is not above 15 min. In addition, in the data set with Staphylococcus epidermis, the “Effective Growth Inhibition Conc., S. epidermis” value was 10 µg/mL. The “% Inhibit, S. epidermis” value was 89% with Staphylococcus epidermis (peptide 10 μg/ml), 80% in the data set on Staphylococcus epidermis (peptide 50 μg/ml) and 0% in the data set on Staphylococcus epidermis (peptide 100 μg/ml). For the same substance, the “Effective Growth Inhibition Conc., E. coli” value in the data set with Escherichia coli amounted to 10 µg/mL; in the data set on Escherichia coli (listed as M2A-G^3), 100 µg/mL; with Escherichia coli (listed as M2A-G^13) it was 25 µg/mL. Besides, the “% Inhibit, E. coli” value is 94% in the data set on Escherichia coli (peptide 10 μg/ml); 89% in the data set with Escherichia coli (peptide 25 μg/ml); 0% in the data set with Escherichia coli (peptide 100 μg/ml); 93% in the data set with Escherichia coli (peptide 100 μg/ml, listed as M2A-G^3).
For GIGKFLHSAKKFGKAFVGEIMN-NH2 [M2A-S^23], the “% Inhibit, S. epidermis” value in the data set with Staphylococcus epidermis (peptide 100 μg/ml) amounted to 0%. Also, the “Effective Growth Inhibition Conc., E. coli” value was 25 µg/mL in the data set on Escherichia coli and 75 µg/mL in the data set with Escherichia coli (listed as M2A-S^8). Further, the entries for the “% Inhibit, E. coli” value in the data set with Escherichia coli (peptide 25 μg/ml) and with Escherichia coli (peptide 75 μg/ml) were 100% and 90%, respectively.
Consider “GIGKFLHSAKKFGKAFVGEIMNS [Peptide M2-Carboxy, Magainin II, reference compound]”, for which the “% Inhibit, E. coli” value in the data set with Escherichia coli (peptide 50 μg/ml) came out at 100%.
Take “GIGKFLHSAKKFGKAFVGEIMNS-NH2 [Peptide M2A, reference compound]”: in the data set with E. coli, the “time until all E. coli cells were killed” value is listed as “much slower”. In the data set with Staphylococcus epidermis, the “Effective Growth Inhibition Conc., S. epidermis” value is 25 µg/mL. Also, in the data set with Staphylococcus epidermis (peptide 25 μg/ml), the “% Inhibit, S. epidermis” value stood at 93%. Besides, in the data set with Escherichia coli, the “Effective Growth Inhibition Conc., E. coli” value turned out to be 25 µg/mL. Further, the “% Inhibit, E. coli” value in the data set on Escherichia coli (peptide 25 μg/ml) stood at 100%. Besides, in the data set with human red blood cells, the “% Hemolysis of Human Red Blood Cells” value worked out at 4%.
For the substance GIGKFLHSAKKFGKAFVGEIMS-NH2 [M2A-N^22], the “Effective Growth Inhibition Conc., S. epidermis” value in the data set on Staphylococcus epidermis is 75 µg/mL. The “% Inhibit, S. epidermis” value in the data set on Staphylococcus epidermis (peptide 75 μg/ml) was 100%. Besides, the “Effective Growth Inhibition Conc., E. coli” value in the data set on Escherichia coli amounted to 25 µg/mL. The “% Inhibit, E. coli” value in the data set with Escherichia coli (peptide 25 μg/ml) came out at 100%. In addition, the “% Hemolysis of Human Red Blood Cells” value with human red blood cells stood at 2%.
Turning to GIGKFLHSAKKFGKAFVGEINS-NH2 [M2A-M^21], in the data set with Staphylococcus epidermis, the “Effective Growth Inhibition Conc., S. epidermis” value was 75 µg/mL. The “% Inhibit, S. epidermis” value with Staphylococcus epidermis (peptide 75 μg/ml) is recorded as 90%. The “Effective Growth Inhibition Conc., E. coli” value in the data set on Escherichia coli turned out to be 25 µg/mL. Also, the “% Inhibit, E. coli” value in the data set with Escherichia coli (peptide 25 μg/ml) is 95%. Moreover, the “% Hemolysis of Human Red Blood Cells” value with human red blood cells is 0%.
Turning to GIGKFLHSAKKFGKAFVGEMNS-NH2 [M2A-I^20], the “% Inhibit, S. epidermis” value in the data set with Staphylococcus epidermis (peptide 100 μg/ml) was determined as 0%. The “Effective Growth Inhibition Conc., E. coli” value in the data set with Escherichia coli came out at 25 µg/mL. Also, the “% Inhibit, E. coli” value is listed as 84% with Escherichia coli (peptide 25 μg/ml) and 0% in the data set on Escherichia coli (peptide 100 μg/ml). For the same substance, the “% Hemolysis of Human Red Blood Cells” value with human red blood cells is listed as 0%.
On to GIGKFLHSAKKFGKAFVGIMNS-NH2 [M2A-E^19], for which the “time until all E. coli cells were killed” value in the data set on E. coli is not above 15 min. The “Effective Growth Inhibition Conc., S. epidermis” value with Staphylococcus epidermis is 10 µg/mL. Also, the “% Inhibit, S. epidermis” value with Staphylococcus epidermis (peptide 10 μg/ml) is listed as 89%. In addition, in the data set on Escherichia coli, the “Effective Growth Inhibition Conc., E. coli” value came out at 10 µg/mL. Besides, the “% Inhibit, E. coli” value in the data set on Escherichia coli (peptide 10 μg/ml) is on record as 92%. In addition, the “% Hemolysis of Human Red Blood Cells” value in the data set on human red blood cells was 0%.
On to GIGKFLHSAKKFGKAVGEIMNS-NH2 [M2A-F^16], for which, in the data set with Staphylococcus epidermis (peptide 100 μg/ml), the “% Inhibit, S. epidermis” value is 0%. Also, in the data set on Escherichia coli, the “Effective Growth Inhibition Conc., E. coli” value amounted to 100 µg/mL. Moreover, the “% Inhibit, E. coli” value in the data set with Escherichia coli (peptide 100 μg/ml) came to 92%; in the data set on Escherichia coli (peptide 100 μg/ml, listed as M2A-F^5) it was 0%; in the data set on Escherichia coli (peptide 100 μg/ml, listed as M2A-F^12), 0%. The “% Hemolysis of Human Red Blood Cells” value in the data set on human red blood cells came out at 1%.
Consider GIGKFLHSAKKFGKFVGEIMNS-NH2 [M2A-A^15], for which the “Effective Growth Inhibition Conc., S. epidermis” value with Staphylococcus epidermis turned out to be 25 µg/mL. Moreover, the entries for the “% Inhibit, S. epidermis” value with Staphylococcus epidermis (peptide 25 μg/ml) and in the data set on Staphylococcus epidermis (peptide 100 μg/ml) were 90% and 0%, respectively. In addition, the “Effective Growth Inhibition Conc., E. coli” value in the data set on Escherichia coli worked out at 10 µg/mL; in the data set with Escherichia coli (listed as M2A-A^9) it was 75 µg/mL. In addition, the “% Inhibit, E. coli” value came out at 95% with Escherichia coli (peptide 10 μg/ml) and 82% in the data set on Escherichia coli (peptide 75 μg/ml).
In the case of GIGKFLSAGKFGKAFVGEIMKS [M1C-H^7], the “% Hemolysis of Human Red Blood Cells” value in the data set with human red blood cells turned out to be 0%.
For the substance GIGKFLSAKKFGKAFVGEIMNS-NH2 [M2A-H^7], in the data set with Staphylococcus epidermis (peptide 100 μg/ml), the “% Inhibit, S. epidermis” value came out at 0%. The “Effective Growth Inhibition Conc., E. coli” value with Escherichia coli was 100 µg/mL. The “% Inhibit, E. coli” value in the data set with Escherichia coli (peptide 100 μg/ml) was 90%. Besides, in the data set on human red blood cells, the “% Hemolysis of Human Red Blood Cells” value was 0%.
